Data as given in patent publication US20210322375A1, “COMBINATION DRUG FORMULATIONS FOR TREATING PATIENTS WITH CARDIOVASCULAR DISEASE AND ASSOCIATED CONDITIONS” (Esperion Therapeutics, Inc., priority 2018, published 2021).
Entries after “also recorded” stand apart in the source; their conditions may differ. Marks after values point to notes of the source that are not given here.

Legend:
[1] = system: hypercholesterolemic patients; assay: Phase 2b trial: treatment-emergent adverse events and laboratory safety
Excerpt: Study Population. Medically stable, hypercholesterolemic men and women aged 18 through 80 years with a body mass index between 18 to 45 kg/m^2 were included in the study. […] The study population included both statin-tolerant and statin-intolerant participants. Statin intolerance was defined as the inability to tolerate ≥2 statins because of muscle-related symptoms such as pain, weakness, or cramping that began or increased during statin therapy and resolved on statin discontinuation. At least 1 statin must have been administered at the lowest approved daily dose, defined as rosuvastatin 5 mg, atorvastatin 10 mg, simvastatin 10 mg, lovastatin 20 mg, pravastatin 40 mg, fluvastatin 40 mg, or pitavastatin 2 mg. Treatment with less than the lowest approved daily dose of a statin (i.e., skipping days) was considered equivalent to not tolerating 1 statin at the lowest approved daily dose.
Overall Study Design and Plan. […] Patients underwent a 5-week washout of all lipid-regulating drugs and dietary supplements and abstained from these drugs and supplements throughout the study. Patients also underwent a 5-week patient-only-blinded placebo run-in during the screening period (week −5 to week 0). This single-blind placebo run-in period was used to eliminate patients with muscle-related AEs during placebo treatment. Patients reporting new or worsening, unexplained muscle-related AEs during this run-in period were excluded from the study.
Patients were stratified (1:1) by history of statin intolerance and randomized at week 0 in a 4:4:4:1:1 ratio to once-daily treatment with capsules containing ETC-1002 120 mg, ETC-1002 180 mg, EZE, ETC-1002 120 mg plus EZE, or ETC-1002 180 mg plus EZE. […] A contract laboratory (Medpace Inc., Cincinnati, Ohio), performed all clinical laboratory tests. LDL-C was calculated using the Friedewald equation. Phlebotomy was performed after a minimum 12-hour fast (water was allowed) and only if the patient took their dose of study drug the previous day.
Safety Endpoints. The safety of ETC-1002 was assessed using treatment-emergent AEs; hematology, serum chemistry, and urinalysis laboratory values; physical examination findings; vital sign measurements; electrocardiogram (ECG) readings; weight; and ankle and waist circumference measurements. AEs were coded using the Medical Dictionary for Regulatory Activities version 16.0 and evaluated by the investigator for severity and relation to study drug. Muscle-related AEs were defined as those from the system organ class of musculoskeletal and connective tissue disorders, except for those that were not obviously muscle related. Terms included in the muscle-related AE analysis were selected from this system organ class after database lock and before unblinding.
Safety analyses were performed on the safety population, which included randomized patients who received at least 1 dose of study drug. Baseline patient characteristics were summarized for the safety population by treatment group and statin-tolerance subgroup.
Muscle-related AEs also were summarized by statin-tolerance subgroup.

[2] = system: high cardiovascular risk patients; assay: Phase 3 clinical trial study: LDL-C and hsCRP lowering; type: in vivo, human; conditions: ETC-1002 monotherapy
[3] = system: high cardiovascular risk patients; assay: Phase 3 clinical trial study: safety and tolerability; conditions: human, in vivo
Excerpt: In a phase 3 clinical trial study consisting of 382 high cardiovascular risk patients who are receiving maximally tolerated statin therapy, treatment of ETC-1002 in combination with Ezetimibe provided clinically and statistically significant lowering of both LDL-C and hsCRP levels by about 35% and about 34% respectively. For patients who are on maximally tolerated statins and received the combination therapy of ETC-1002 and Ezetimibe, no increases in muscle-related adverse effects and no elevations in liver function tests were observed as compared to patients receiving the placebo treatment.

[4] = system: hypercholesterolemic patients; assay: Phase 2b randomized double-blind trial: percent change from baseline to week 12 in lipids and CRP; type: in vivo, human; conditions: for LDL-C reduction: baseline to week 12; for Apolipoprotein A-I, percent change from baseline to week 12 / Apolipoprotein B, percent change from baseline to week 12 / HDL particle number, percent change from baseline to week 12 / HDL-C, percent change from baseline to week 12 / LDL particle number, percent change from baseline to week 12 / LDL-C, percent change from baseline to week 12 / Non-HDL-C, percent change from baseline to week 12 / Total cholesterol, percent change from baseline to week 12: LS mean ± SE; for CRP, percent change from baseline to week 12 / Triglycerides, percent change from baseline to week 12 / VLDL particle number, percent change from baseline to week 12: median (interquartile range)
Experimental: Brief Description of Clinical Study and Results.
Study Objectives. The primary objective was to assess the LDL-C-lowering effect of ETC-1002 monotherapy (120 mg or 180 mg daily) versus EZE monotherapy in hypercholesterolemic patients with or without statin intolerance. Secondary objectives were to characterize the dose response of ETC-1002, evaluate the impact of treatment on other lipid and cardiometabolic biomarkers, compare the LDL-C-lowering effect of ETC-1002 plus EZE combination therapy with EZE monotherapy, and characterize the safety and tolerability of the treatment regimens, including muscle-related adverse events (AEs).
Overall Study Design and Plan. […] 16, 2013 to Aug.
LDL-C was calculated using the Friedewald equation.
Efficacy Endpoints. The primary endpoint was the percent change from baseline to week 12 in calculated LDL-C in patients treated with ETC-1002 monotherapy versus those treated with EZE alone. Secondary endpoints included the dose-response relationship between ETC-1002 and the percent change in LDL-C from baseline to week 12, the percent change in LDL-C from baseline to week 12 in patients treated with ETC-1002 plus EZE versus those treated with EZE alone, and the percent change from baseline to week 12 for all treatment groups in LDL particle number, apolipoprotein B, total cholesterol, non-high-density lipoprotein cholesterol (non-HDL-C), HDL-C, HDL particle number, apolipoprotein A-I, triglycerides, very-low-density lipoprotein (VLDL) particle number, and high-sensitivity C-reactive protein (CRP). Lipoprotein particle number was measured using nuclear magnetic resonance […].
Statistical Plan and Analyses. The study was designed to include 322 patients: 92 patients in each monotherapy group and 23 patients in each combination therapy group. Sample size calculations were performed using nQuery Advisor® version 7.0 (Statistical Solutions, Cork, Ireland). The sample size of 92 patients per monotherapy group was expected to provide 90% power to detect a difference of 10% in the absolute percent change from baseline to week 12 in LDL-C between either ETC-1002 treatment group and the EZE monotherapy group. This calculation was based on a 2-sided t test at the 5% level of significance and assumed a common standard deviation of 15% in the statin-tolerant patients and 22% in the statin-intolerant patients with a dropout rate of 15%.
An analysis of covariance was used to compare each ETC-1002 treatment group with EZE monotherapy for each of the efficacy endpoints. The primary model included the effects of treatment and statin intolerance and the baseline value as a covariate. Baseline was defined as the mean of values from weeks −1 and 0 for LDL-C, non-HDL-C, total cholesterol, HDL-C, and triglycerides. For all other lipid and biomarker measures, baseline was defined as the last value before the first dose of study drug. Missing values at week 12 were imputed using the last-observation-carried-forward procedure. When LDL-C could not be calculated (i.e., triglycerides >400 mg/dL), beta-quantification measurements were used to determine LDL-C values. Least-squares (LS) means and standard errors were obtained for each treatment group; differences in LS means and p-values were obtained for the treatment comparisons. Graphical methods (e.g., normal probability plot and histogram of residuals, plot of residuals vs. predicted values) or analytical methods (e.g., Shapiro-Wilk test), or both, were used to assess the model assumptions. Because of departures from normality observed in the parameters of triglycerides, CRP, and VLDL particle number, nonparametric analyses were performed for these measures, with p-values obtained from the Wilcoxon rank-sum test and median values presented.
Percent changes from baseline in LDL-C also were summarized by statin-tolerance subgroup. […]

[5] = ETC-1002 120 mg daily, safety population n = 99
[6] = ETC-1002 180 mg daily, safety population n = 100
[7] = statin-intolerant patients, ETC-1002 120 mg, n = 51
[8] = statin-intolerant patients, ETC-1002 180 mg, n = 51
[9] = statin-tolerant patients, ETC-1002 120 mg, n = 48
[10] = statin-tolerant patients, ETC-1002 180 mg, n = 49
[11] = ETC-1002 120 mg daily, mITT n = 97
[12] = ETC-1002 180 mg daily, mITT n = 99

CC(C)(CCCCCC(O)CCCCCC(C)(C)C(=O)O)C(=O)O [ETC-1002, 8-hydroxy-2,2,14,14 tetramethylpentadecanedioic acid]
ALT or AST, or both, increased >3 times the upper limit of normal at any measurement ([1]; ETC-1002 120 mg): 1 patient | Myalgia, patients, entire study population ([1]; ETC-1002 120 mg): 3% | Serious AE reported (event) ([1]; ETC-1002 120 mg): hemothorax; also recorded: sudden death | ALT increased, patients [1, 5]: 0 n (%) | AST increased, patients [1, 5]: 0 n (%) | Any AE(s), patients [1, 5]: 50 (51%) n (%) | Arthralgia, patients [1, 5]: 4 (4%) n (%) | Back pain, patients [1, 5]: 1 (1%) n (%) | Blood CK increased, patients [1, 5]: 1 (1%) n (%) | Constipation, patients [1, 5]: 3 (3%) n (%) | Discontinuation due to AE(s), patients [1, 5]: 3 (3%) n (%) | Headache, patients [1, 5]: 3 (3%) n (%) | Myalgia, patients [1, 5]: 3 (3%) n (%) | Nasopharyngitis, patients [1, 5]: 3 (3%) n (%) | Serious AE(s), patients [1, 5]: 2 (2%) n (%) | Study drug-related AE(s), patients [1, 5]: 13(13%) n (%) | Upper respiratory tract infection, patients [1, 5]: 6 (6%) n (%) | Urinary tract infection, patients [1, 5]: 0 n (%) | ALT or AST, or both, increased >3 times the upper limit of normal at any measurement ([1]; ETC-1002 180 mg): 2 patients | Myalgia, patients, entire study population ([1]; ETC-1002 180 mg): 1% | Serious AE reported (event) ([1]; ETC-1002 180 mg): pancreatitis relapse | ALT increased, patients [1, 6]: 0 n (%) | AST increased, patients [1, 6]: 0 n (%) | Any AE(s), patients [1, 6]: 55 (55%) n (%) | Arthralgia, patients [1, 6]: 1 (1%) n (%) | Back pain, patients [1, 6]: 1 (1%) n (%) | Blood CK increased, patients [1, 6]: 4 (4%) n (%) | Constipation, patients [1, 6]: 1 (1%) n (%) | Discontinuation due to AE(s), patients [1, 6]: 6 (6%) n (%) | Headache, patients [1, 6]: 2 (2%) n (%) | Myalgia, patients [1, 6]: 1 (1%) n (%) | Nasopharyngitis, patients [1, 6]: 5 (5%) n (%) | Serious AE(s), patients [1, 6]: 1 (1%) n (%) | Study drug-related AE(s), patients [1, 6]: 18 (18%) n (%) | Upper respiratory tract infection, patients [1, 6]: 6 (6%) n (%) | Urinary tract infection, patients [1, 6]: 4 (4%) n (%) | Any muscle-related AE, patients [1, 7]: 7 (14%) n (%) | Muscle spasms, patients [1, 7]: 3 (6%) n (%) | Muscle-related AE leading to discontinuation, patients [1, 7]: 1 (2%) n (%) | Muscular weakness, patients [1, 7]: 2 (4%) n (%) | Musculoskeletal chest pain, patients [1, 7]: 0 n (%) | Musculoskeletal stiffness, patients [1, 7]: 0 n (%) | Myalgia, patients [1, 7]: 2 (4%) n (%) | Pain in extremity, patients [1, 7]: 1 (2%) n (%) | Sensation of heaviness, patients [1, 7]: 0 n (%) | Any muscle-related AE, patients [1, 8]: 6 (12%) n (%) | Muscle spasms, patients [1, 8]: 2 (4%) n (%) | Muscle-related AE leading to discontinuation, patients [1, 8]: 2 (4%) n (%) | Muscular weakness, patients [1, 8]: 1 (2%) n (%) | Musculoskeletal chest pain, patients [1, 8]: 1 (2%) n (%) | Musculoskeletal stiffness, patients [1, 8]: 0 n (%) | Myalgia, patients [1, 8]: 1 (2%) n (%) | Pain in extremity, patients [1, 8]: 1 (2%) n (%) | Sensation of heaviness, patients [1, 8]: 0 n (%) | Any muscle-related AE, patients [1, 9]: 1 (2%) n (%) | Muscle spasms, patients [1, 9]: 0 n (%) | Muscle-related AE leading to discontinuation, patients [1, 9]: 0 n (%) | Musculoskeletal pain, patients [1, 9]: 0 n (%) | Myalgia, patients [1, 9]: 1 (2%) n (%) | Any muscle-related AE, patients [1, 10]: 0 n (%) | Muscle spasms, patients [1, 10]: 0 n (%) | Muscle-related AE leading to discontinuation, patients [1, 10]: 0 n (%) | Musculoskeletal pain, patients [1, 10]: 0 n (%) | Myalgia, patients [1, 10]: 0 n (%) | LDL-C lowering ([2]; patients not receiving background statin therapy): ≥ 30% | LDL-C lowering ([2]; patients receiving background statin therapy): ≥ 20% | hsCRP lowering ([2]; patients receiving maximally tolerated statin therapy): 22-40% | Increases in muscle-related adverse effects or serious adverse effects [3]: without any increases | Tolerability [3]: well tolerated and safe | CRP decrease from baseline to week 12 endpoint, median ([4]; ETC-1002 120 mg): 30% | LDL-C reduction ([4]; ETC-1002 120 mg alone): 27% | Apolipoprotein A-I, percent change from baseline to week 12 [4, 11]: −0.2 ± 1.1% | Apolipoprotein B, percent change from baseline to week 12 [4, 11]: −19.3 ± 1.3 % | HDL particle number, percent change from baseline to week 12 [4, 11]: 5.0 ± 1.3% | HDL-C, percent change from baseline to week 12 [4, 11]: −5.8 ± 1.4 % | LDL particle number, percent change from baseline to week 12 [4, 11]: −21.8 ± 1.7 % | LDL-C, percent change from baseline to week 12 [4, 11]: −27.5 ± 1.3 % | Non-HDL-C, percent change from baseline to week 12 [4, 11]: −23.2 ± 1.2 % | Total cholesterol, percent change from baseline to week 12 [4, 11]: −19.3 ± 0.9 % | CRP, percent change from baseline to week 12 [4, 11]: −30.1 (55.4)† % | Triglycerides, percent change from baseline to week 12 [4, 11]: 0.0 (41.6) % | VLDL particle number, percent change from baseline to week 12 [4, 11]: −2.7 (68.5) % | CRP decrease from baseline to week 12 endpoint, median ([4]; ETC-1002 180 mg): 40% | LDL-C reduction ([4]; ETC-1002 180 mg alone): 30% | Apolipoprotein A-I, percent change from baseline to week 12 [4, 12]: 0.1 ± 1.2% | Apolipoprotein B, percent change from baseline to week 12 [4, 12]: −21.3 ± 1.3 % | HDL particle number, percent change from baseline to week 12 [4, 12]: 6.2 ± 1.4% | HDL-C, percent change from baseline to week 12 [4, 12]: −4.8 ± 1.4 % | LDL particle number, percent change from baseline to week 12 [4, 12]: −24.6 ± 1.8 % | LDL-C, percent change from baseline to week 12 [4, 12]: −30.1 ± 1.3 % | Non-HDL-C, percent change from baseline to week 12 [4, 12]: −25.3 ± 1.1 % | Total cholesterol, percent change from baseline to week 12 [4, 12]: −20.7 ± 0.9 % | CRP, percent change from baseline to week 12 [4, 12]: −40.2 (53.3)† % | Triglycerides, percent change from baseline to week 12 [4, 12]: −2.7 (46.2) % | VLDL particle number, percent change from baseline to week 12 [4, 12]: 15.3 (80.5) % | LDL-C reduction, ETC-1002 alone (maximum) ([4]; ETC-1002 monotherapy 120 mg or 180 mg): up to 30%
